Columns and labels:
Format in all cases: biochemical
[1] = tested on: CPP32; experiment: dATP and cytochrome c-dependent activation of CPP32 in S-100 from human embryonic kidney 293 cells
Procedure: (§1) FIG. 8 illustrates dATP and cytochrome c-dependent activation of CPP32 in S-100 cytosol preparations (immunodepleted of cytochrome c) from human embryonic kidney 293 cells and human monoblastic U937 cells. CPP32 activation reactions were carried out as described in FIG. 7 except 25 μg of S-100 was used in each reaction. 1 mM of dATP was present in lanes 2, 4, 6, 8, 10, and 12. Lanes 1 and 2, S-100 fraction from 293 cells; Lanes 3-4, S-100 fraction from 293 cells immunodepleted of cytochrome c; lanes 5 and 6, S-100 fraction from 293 cells immunodepleted of cytochrome c supplemented with 0.2 μg of Apaf-2 purified through the Mono S column step; Lanes 7 and 8, S-100 fraction from U937 cells; […], S-100 fraction from U937 cells immunodepleted of cytochrome c; lanes 11,12, S-100 fraction from U937 cells immunodepleted of cytochrome c supplemented with 0.2 μg of Apaf-2 purified through Mono S column step.
(§2) To investigate whether the dATP and cytochrome c-dependent activation of CPP32 is a general phenomenon, cytosols were prepared from human embryonic kidney 293 cells and human monoblastic leukemia U937 cells.
(§3) 293 cells were set up at 5×10^5 cells per 100 mm dish in medium A [Dulbecco's modified Eagle's medium (DMEM) supplemented with 10% (v/v) heat-inactivated fetal calf serum, 100 U/ml penicillin and 100 μg/ml streptomycin sulfate]. […]

[2] = tested on: hamster liver nuclei; experiment: DNA fragmentation assay (HeLa S-100 incubated with hamster liver nuclei); settings: 1 mM nucleotide, 37° C., 2 hr
Procedure: FIGS. 1A-1D illustrate dATP-dependent activation of CPP32 and DNA fragmentation in vitro. Aliquots (10 μl) of HeLa cell S-100 (50 μg) were incubated alone (lane 1), in the presence of 1 mM ATP (lane 2), or in the presence of 1 mM dATP (lane 3) at 30° C. for 1 hr in a final volume of 20 μl of buffer A. FIG. 1A, samples were subjected to SDS-PAGE and transferred to a nitrocellulose filter, probed with a monoclonal anti-CPP32 antibody, and the antigen/antibody complex was visualized by the ECL method. The filter was exposed to Kodak X-OMAT AR X-ray film for 1 min. In FIG. 1B, an aliquot of 10 μl of in vitro translated, ^35S-labeled PARP was added to each reaction. After 5 min, the samples were subjected to SDS-PAGE and transferred to a nitrocellulose filter. The filter was exposed to film for 2 hr at room temperature. In FIG. 1C, a 5 μl aliquot of in vitro translated, ^35S-labeled SREBP-2 was added to each reaction. After incubation at 30° C. for 30 min, the samples were subjected to SDS-PAGE, the gel was dried and exposed to film for 2 hr at room temperature. […]
FIGS. 2A-2B illustrate the nucleotide specificity for in vitro activation of CPP32 and DNA fragmentation. […] The DNA was isolated, analyzed by 2% agarose gel electrophoresis and visualized by ethidium bromide staining. […]

[3] = tested on: CPP32; experiment: dATP and cytochrome c-dependent activation of CPP32 in S-100 from human monoblastic U937 cells
Procedure: as §1, §2, §3

Row | Compound | dATP-dependent CPP32 activating activity of S-100 ([1]; 293 cell S-100, 1 mM dATP) | DNA fragmentation in hamster liver nuclei [2] | dATP-dependent CPP32 activating activity of S-100 ([3]; U937 cell S-100, 1 mM dATP) | restoration of CPP32 activating activity ([1]; 293 cell S-100 immunodepleted of cytochrome c, 0.2 μg, 1 mM dATP) | restoration of CPP32 activating activity ([3]; U937 cell S-100 immunodepleted of cytochrome c, 0.2 μg, 1 mM dATP)
1 | Nc1ncnc2c1ncn2[C@H]1C[C@H](O)[C@@H](COP(=O)(O)OP(=O)(O)OP(=O)(O)O)O1 [dATP, deoxyadenosine-5-triphosphate] | contained a dATP-dependent CPP32 activating activity | induced DNA fragmentation | contained a dATP-dependent CPP32 activating activity | – | –
2 | Apaf-2: 15 kDa factor bound to phosphocellulose column, purified from HeLa S-100, identified as human cytochrome c | – | – | – | restored the activity | restored the activity

Source: patent US6558900B2, “Regulation of apoptosis and in vitro model for studies thereof” (Emory University, priority 1996, dated 2003)
